In patent publication US20240425478A1, “CYCLOPENTYLPYRAZOLE CDK2 INHIBITORS” (Genentech, Inc., priority 2021, published 2024):
Like-named read-outs stand apart in the source and are kept apart here.

How the values were obtained:
[1] = test system: OVISE (JCRB1043, CCNE1-amplified); test: OVISE EdU incorporation cell proliferation assay (CDK2-dependent); format: cell-based; details: for IC50: cellular assay, read-out: CDK2 OVISE IC50; for FS SKOV-3/OVISE: fold selectivity, cellular SKOV-3 IC50 over OVISE IC50
Method in brief: (§1)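 EdU incorporation (0.5 μM final, last 8 h) follows a 16 h compound exposure at 37 °C, 5% CO2 in RPMI plus 10% FBS, 0.5% DMSO. After fixation, imaging scores EdU-positive cells; a 4-parameter logistic fit of that fraction gives IC50.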

[2] = biological target: T1, Cyclin Dependent Kinase 1/Cyclin A2 (CDK1-cycA2) (Homo sapiens, UniProt P06493); test: CDK1-cycA2 TR-FRET (Lance) enzyme assay; format: biochemical; details: for Ki: enzymatic assay
T1 construct: purchased ProQinase 0134-0054-1
T1 sequence (P06493 whole entry): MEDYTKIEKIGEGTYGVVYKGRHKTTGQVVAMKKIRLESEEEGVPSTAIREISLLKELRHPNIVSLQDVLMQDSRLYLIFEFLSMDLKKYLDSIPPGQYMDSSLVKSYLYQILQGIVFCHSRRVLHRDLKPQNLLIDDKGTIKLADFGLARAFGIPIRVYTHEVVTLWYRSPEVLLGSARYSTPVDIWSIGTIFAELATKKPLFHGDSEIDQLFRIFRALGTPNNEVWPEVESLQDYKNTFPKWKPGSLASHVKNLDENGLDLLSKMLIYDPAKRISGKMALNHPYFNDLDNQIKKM
T1 sequence (P20248 whole entry partner): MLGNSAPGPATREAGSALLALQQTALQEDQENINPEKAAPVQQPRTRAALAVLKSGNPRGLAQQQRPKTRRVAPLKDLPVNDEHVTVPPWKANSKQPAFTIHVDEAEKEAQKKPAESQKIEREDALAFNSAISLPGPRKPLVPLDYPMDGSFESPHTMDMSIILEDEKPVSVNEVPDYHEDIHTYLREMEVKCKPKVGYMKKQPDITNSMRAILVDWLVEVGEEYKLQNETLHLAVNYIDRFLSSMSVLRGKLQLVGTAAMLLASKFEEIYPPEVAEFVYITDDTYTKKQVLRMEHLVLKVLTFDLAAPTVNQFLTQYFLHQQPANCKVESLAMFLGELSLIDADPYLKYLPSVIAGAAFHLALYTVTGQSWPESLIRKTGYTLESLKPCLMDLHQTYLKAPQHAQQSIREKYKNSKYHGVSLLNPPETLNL
Method in brief: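 TR-FRET (Lance) detection of phospho-4E-BP1 with a europium-labelled antibody after EDTA quench (15 mM final); signal taken as acceptor/donor ratio. Enzyme and compound were pre-incubated 30 min in HEPES pH 7.5 buffer with MgCl2, TCEP, BGG and Brij 35. Ki derived by Morrison fit.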

[3] = biological target: T2, Cyclin Dependent Kinase 2/Cyclin E1 (CDK2-cycE1) (Homo sapiens, UniProt P24941); test: CDK2-cycE1 TR-FRET (LANCE) enzyme assay; format: biochemical; details: for FS CDK1/CDK2 / FS CDK4/CDK2: fold selectivity; for FS CDK1/CDK2: enzymatic CDK1 Ki over CDK2 Ki; for FS CDK4/CDK2: enzymatic CDK4 Ki over CDK2 Ki
T2 construct: purchased ProQinase 0050-0055-1
Method in brief: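 Kinase reaction buffer: 50 mM HEPES pH 7.5, 10 mM MgCl2, 2 mM TCEP, 0.05% BGG, 0.01% Brij 35, with 30 min compound–enzyme pre-incubation.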

[4] = biological target: T3, Cyclin Dependent Kinase 4/Cyclin D3 (CDK4-cycD3) (Homo sapiens, UniProt P11802); test: CDK4-cycD3 TR-FRET (LANCE) enzyme assay; format: biochemical; details: for Ki: enzymatic assay
T3 construct: purchased Carna Biosciences 04-105
T3 sequence (P11802 whole entry): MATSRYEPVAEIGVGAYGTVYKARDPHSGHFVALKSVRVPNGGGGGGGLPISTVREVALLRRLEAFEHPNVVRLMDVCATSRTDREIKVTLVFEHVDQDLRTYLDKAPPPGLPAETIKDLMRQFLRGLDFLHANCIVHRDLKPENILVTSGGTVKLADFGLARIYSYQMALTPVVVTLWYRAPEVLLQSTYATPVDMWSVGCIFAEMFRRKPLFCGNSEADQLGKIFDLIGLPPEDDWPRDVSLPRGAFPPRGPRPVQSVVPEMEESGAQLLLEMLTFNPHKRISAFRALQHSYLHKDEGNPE
T3 sequence (P30281 whole entry partner): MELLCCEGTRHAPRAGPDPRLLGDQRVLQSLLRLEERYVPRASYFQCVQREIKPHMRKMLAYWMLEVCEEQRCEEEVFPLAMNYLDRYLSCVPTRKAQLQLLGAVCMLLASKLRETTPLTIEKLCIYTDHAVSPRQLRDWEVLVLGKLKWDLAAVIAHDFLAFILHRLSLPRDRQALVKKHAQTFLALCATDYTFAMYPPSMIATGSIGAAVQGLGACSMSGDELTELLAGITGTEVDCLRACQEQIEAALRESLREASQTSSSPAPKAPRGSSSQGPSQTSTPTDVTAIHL
Method in brief: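 Compound dose responses pre-incubated 30 min with enzyme mix in 50 mM HEPES pH 7.5, 10 mM MgCl2, 2 mM TCEP, 0.05% BGG, 0.01% Brij 35. Reaction quenched with EDTA (15 mM final); Eu-anti-phospho-4E-BP1 TR-FRET detection, acceptor/donor ratio. Ki derived by Morrison equation.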

HCT116 cells = test: p-H3 HCT-116 mitotic release cell proliferation assay (cellular CDK1); format: cell-based
Method: Inhibition of cellular CDK1 determined by release of cells from nocodazole-induced mitotic arrest, as measured by decrease in phospho-Histone H3. Histone H3 (Ser 10) level is detected in cell lysates by producing a Fluorescence Resonance Energy Transfer (FRET) signal between two antibodies, Phospho-Histone H3 Cryptate (acting as the donor) and Phospho-Histone H3 d2 (acting as the acceptor).
Plates are allowed to rest overnight at 37° C./5% CO2. The following morning, nocodazole is diluted in complete medium, and 5 μL is added to each test well and positive control well for a final concentration of 500 nM. Plates are then incubated for 16 hours at 37° C./5% CO2. […] 10 μL of diluted compound is then transferred to the cell plate (final DMSO concentration 0.1%). Cell plates are then incubated for 4 hours in 37° C. 5% CO2. A cell lysis buffer is prepared on ice using reagents from the Phospho-Histone H3 (Ser10) cellular kit (Cisbio-64HH3PEG). Supernatant is discarded from the cell plate and 80 μL of the supplemented cell lysis buffer (1:99 dilution of the Blocking Reagent and the 1× cell lysis buffer provided in the kit) is added to each of the experimental wells. The cell lysis reaction is allowed to proceed at room temperature while shaking vigorously for 30 minutes. The 384-well HTRF (Homogeneous Time Resolved Fluorescence) plate is prepared by adding 2 μL of each diluted antibody (Phospho-Histone H3 Cryptate antibody and Phospho-Histone H3 d2 antibody diluted 19:1 in a detection buffer) and 12 μL of the supplemented cell lysis buffer to each well in the HTRF plate. 4 μL of the cell lysate is added to the prepared HTRF plate which is then sealed and the reaction is allowed to proceed for a minimum of 2 hours at room temperature.

SKOV-3 (ATCC HTB-77) = test: SKOV-3 EdU incorporation cell proliferation assay (CDK4/6-dependent); format: cell-based; details: for IC50: Homo sapiens, cellular assay, read-out: CDK4/6 SKOV-3 IC50
Method in brief: as §1

[5] = fold selectivity, enzymatic Ki ratio, Table P
[6] = Table O, enzymatic assay, read-out: CDK2 Ki

SMILES | IC50 ([1]; Table P) [nM] | Ki ([2]; Table P) [nM] | FS CDK1/CDK2 [2, 5] | Ki ([3]; read-out: CDK2 activity / potency (enzymatic assay)) [nM] | Ki ([4]; Table P) [nM] | FS CDK4/CDK2 [4, 5] | pH3/OVISE fold selectivity (CDK1 over CDK2, cellular assay data) (HCT116 cells) [fold] | IC50 (HCT116 cells; Homo sapiens, HCT-116, cellular assay, Table P, read-out: CDK1 p-H3 IC50) [nM] | FS p-H3/OVISE (HCT116 cells; fold selectivity, cellular IC50 ratio (CDK1 over CDK2), Table P) | IC50 (SKOV-3 (ATCC HTB-77); SK-OV-3, Table P) [nM] | FS SKOV-3/OVISE (SKOV-3 (ATCC HTB-77); fold selectivity, cellular IC50 ratio (CDK4/6 over CDK2), Table P) | IC50 ([1]; Table O) [nM] | FS SKOV-3/OVISE ([1]; Table O) | Ki ([2]; Table O) [nM] | Ki [3, 6] [nM] | FS CDK1/CDK2 ([3]; Table O) | FS CDK4/CDK2 ([3]; Table O) | Ki ([4]; Table O) [nM] | IC50 (SKOV-3 (ATCC HTB-77); SK-OV-3, Table O) [nM]
CC(C)(C)NC(=O)O[C@@H]1CC[C@H](c2cc(NC(=O)Cc3ccnnc3)n[nH]2)C1 [Comparator A, reference compound] | 40 | 9.1 | 54 | 0.17 | 38 | 224 | 0.78 | 31 | 0.78 | 1700 | 43 |  |  |  |  |  |  |  | 
O=C(NC1(C(F)(F)F)CC1)O[C@@H]1CC[C@H](c2cc(Nc3cccnn3)n[nH]2)C1 [Example 5, (1R,3S)-3-(3-(pyridazin-3-ylamino)-1H-pyrazol-5-yl)cyclopentyl (1-(trifluoromethyl)cyclopropyl)carbamate] |  |  |  |  |  |  |  |  |  |  |  | 460 | 13 | 270 | 11 | 25 | 25 | 280 | 5800
CNC(=O)c1ccc(Nc2cc([C@H]3CC[C@@H](OC(=O)NC4(C)CC4)C3)[nH]n2)c(C)n1 [Example 7A, (1R,3S)-3-(3-((2-methyl-6-(methylcarbamoyl)pyridin-3-yl)amino)-1H-pyrazol-5-yl)cyclopentyl (1-methylcyclopropyl)carbamate] |  |  |  |  |  |  |  |  |  |  |  | 1400 | >14 | 550 | 14 | 39 | 42 | 590 | > 20000
Cc1ncccc1Nc1cc([C@H]2CC[C@@H](OC(=O)N[C@@H]3CCN(C)C3)C2)[nH]n1 [Example 7B, (1R,3S)-3-(3-((2-methylpyridin-3-yl)amino)-1H-pyrazol-5-yl)cyclopentyl ((R)-1-methylpyrrolidin-3-yl)carbamate] |  |  |  |  |  |  |  |  |  |  |  | 17000 | >1.2 | 3300 | 300 | 11 | 22 | 6500 | > 20000
Cc1ncccc1Nc1cc([C@H]2CC[C@@H](OC(=O)N[C@H]3CCN(C)C3)C2)[nH]n1 [Example 7C, (1R,3S)-3-(3-((2-methylpyridin-3-yl)amino)-1H-pyrazol-5-yl)cyclopentyl ((S)-1-methylpyrrolidin-3-yl)carbamate] |  |  |  |  |  |  |  |  |  |  |  | 8000 | >2.5 | 3500 | 260 | 13 | 16 | 4200 | > 20000
Cc1ncccc1Nc1cc([C@H]2CC[C@@H](OC(=O)NC3CC(O)C3)C2)[nH]n1 (stereo partly drawn) [Example 7D, (1R,3S)-3-(3-((2-methylpyridin-3-yl)amino)-1H-pyrazol-5-yl)cyclopentyl ((1s,3s)-3-hydroxycyclobutyl)carbamate] |  |  |  |  |  |  |  |  |  |  |  | 1600 | >13 | 370 | 23 | 16 | 52 | 1200 | > 20000
Cc1cc(Nc2cc([C@H]3CC[C@@H](OC(=O)NC45CC(C4)C5)C3)[nH]n2)c(C)nn1 [Example 9D, (1R,3S)-3-(3-((3,6-dimethylpyridazin-4-yl)amino)-1H-pyrazol-5-yl)cyclopentyl bicyclo[1.1.1]pentan-1-ylcarbamate] |  |  |  |  |  |  |  |  |  |  |  | 5000 | >4 | 340 | 12 | 28 | 500 | 6000 | > 20000
CNC(=O)c1ncc(Nc2cc([C@H]3CC[C@@H](OC(=O)NC45CC(C4)C5)C3)[nH]n2)c(C)n1 [Example 9F, (1R,3S)-3-(3-((4-methyl-2-(methylcarbamoyl)pyrimidin-5-yl)amino)-1H-pyrazol-5-yl)cyclopentyl bicyclo[1.1.1]pentan-1-ylcarbamate] |  |  |  |  |  |  |  |  |  |  |  | 1200 | >17 | 80 | 5 | 16 | 92 | 460 | > 20000
Cc1cnccc1Nc1cc([C@H]2CC[C@@H](OC(=O)NC34CC(C3)C4)C2)[nH]n1 [Example 9G, (1R,3S)-3-(3-((3-methylpyridin-4-yl)amino)-1H-pyrazol-5-yl)cyclopentyl bicyclo[1.1.1]pentan-1-ylcarbamate] |  |  |  |  |  |  |  |  |  |  |  | 340 | 44 | 770 | 12 | 64 | 110 | 1300 | 15000
COc1cc(=O)n(C)cc1Nc1cc([C@H]2CC[C@@H](OC(=O)NC34CC(C3)C4)C2)[nH]n1 [Example 10, (1R,3S)-3-(3-((4-methoxy-1-methyl-6-oxo-1,6-dihydropyridin-3-yl)amino)-1H-pyrazol-5-yl)cyclopentyl bicyclo[1.1.1]pentan-1-ylcarbamate] |  |  |  |  |  |  |  |  |  |  |  | 16000 | >1.3 | 5100 | 130 | 39 | 385 | > 50000 | > 20000
O=C(NC12CC(C1)C2)O[C@@H]1CC[C@H](c2cc(Nc3ccnnc3C3CC3)n[nH]2)C1 [Example 11, (1R,3S)-3-(3-((3-cyclopropylpyridazin-4-yl)amino)-1H-pyrazol-5-yl)cyclopentyl bicyclo[1.1.1]pentan-1-ylcarbamate] |  |  |  |  |  |  |  |  |  |  |  | 2600 | >7.7 | 890 | 12 | 74 | 92 | 1100 | > 20000
